Activity calls are given as the source filed them. The rule behind the calls is not given here.
What was measured:
[1] = tested on: SW-620; experiment: Antiproliferative activity against human SW620 cells harbouring KRAS G12 V mutant and RON delta 155 assessed as cell growth inhibition measured after 72 hrs by MTS assay; format: functional
[2] = molecular target: T1, Macrophage-stimulating protein receptor (Homo sapiens, UniProt Q04912); experiment: Inhibition of N-terminal GST-tagged human recombinant RON (979 to 1400(end) residues) expressed in Sf21 cells incubated for 20 mins followed by ATP addition measured after 60 mins by TR-FRET based LanthaScreen kinase assay
[3] = tested on: HT-29; experiment: Antiproliferative activity against human HT-29 cells harbouring wild-type KRAS and RON delta 160 assessed as cell growth inhibition measured after 72 hrs by MTS assay; format: functional
[4] = tested on: KM12C; experiment: Antiproliferative activity against human KM12-C cells harbouring wild-type KRAS and RON delta 160 assessed as cell growth inhibition measured after 72 hrs by MTS assay; format: functional
[5] = tested on: KM12C; experiment: Antiproliferative activity against human KM12-C cells harbouring wild-type KRAS and RON delta 160 assessed as cell death rate at 5 uM measured after 48 hrs by trypan blue exclusion assay relative to control; format: functional
[6] = tested on: HT-29; experiment: Antiproliferative activity against human HT-29 cells harbouring wild-type KRAS and RON delta 160 assessed as cell death rate at 5 uM measured after 48 hrs by trypan blue exclusion assay relative to control; format: functional
[7] = tested on: SW480; experiment: Antiproliferative activity against human SW480 cells harbouring KRAS G12V mutant and RON delta 155 assessed as cell growth inhibition measured after 72 hrs by MTS assay; format: functional
[8] = tested on: PANC-1; experiment: Antiproliferative activity against human PANC-1 cells harbouring KRAS G12D mutant and RON delta 155 assessed as cell growth inhibition measured after 72 hrs by MTS assay; format: functional
[9] = tested on: MIA PaCa-2; experiment: Antiproliferative activity against human MIA PaCa-2 cells harbouring KRAS G12C mutant and RON delta 160 assessed as cell growth inhibition measured after 72 hrs by MTS assay; format: functional
[10] = Antitumor activity against patient derived Colorectal cancer cell harbouring wild-type KRAS and RON delta 160 xenografted in BALB/c mouse assessed as tumor growth inhibition at 10 mg/kg, po qd measured after 28 days; format: functional; conditions: Homo sapiens, 672 h, time 28 day, read-out: TGI
[11] = tested on: ASPC1; experiment: Antiproliferative activity against human ASPC1 cells harbouring KRAS G12D mutant and RON delta 165 assessed as cell growth inhibition measured after 72 hrs by MTS assay; format: functional
[12] = tested on: PANC-03-27; experiment: Antiproliferative activity against human Panc 03.27 cells harbouring KRAS G12V mutant and RON delta 155 assessed as cell growth inhibition measured after 72 hrs by MTS assay; format: functional
[13] = tested on: CAPAN-1; experiment: Antiproliferative activity against human CAPAN-1 cells harbouring KRAS G12V mutant and RON delta 155 assessed as cell growth inhibition measured after 72 hrs by MTS assay; format: functional
[14] = AUC(0 to infinity) in Sprague-Dawley rat at 5 mg/kg, po measured after 24 hrs by LC/MS/MS analysis; format: ADME, organism-based; design: dose 5 mg/kg, time 24 hrs, route po; conditions: Sprague-Dawley, in vivo
[15] = Cmax in Sprague-Dawley rat at 5 mg/kg, po measured after 24 hrs by LC/MS/MS analysis; format: ADME, organism-based; design: dose 5 mg/kg, time 24 hrs, route po; conditions: in vivo
[16] = Oral bioavailability in Sprague-Dawley rat at 5 mg/kg measured after 24 hrs by LC/MS/MS analysis; format: ADME, organism-based; conditions: Sprague-Dawley, in vivo
[17] = AUC(0 to infinity) in Sprague-Dawley rat at 1 mg/kg, iv measured after 24 hrs by LC/MS/MS analysis; format: ADME, organism-based; design: time 24 hrs, dose 1 mg/kg, route iv; conditions: Sprague-Dawley, in vivo
[18] = Half life in Sprague-Dawley rat at 5 mg/kg, po measured after 24 hrs by LC/MS/MS analysis; format: ADME, organism-based; conditions: in vivo
[19] = molecular target: Hepatocyte growth factor receptor (Homo sapiens, UniProt P08581); experiment: Inhibition of c-Met (unknown origin)
Sequence of Hepatocyte growth factor receptor (P08581 whole entry): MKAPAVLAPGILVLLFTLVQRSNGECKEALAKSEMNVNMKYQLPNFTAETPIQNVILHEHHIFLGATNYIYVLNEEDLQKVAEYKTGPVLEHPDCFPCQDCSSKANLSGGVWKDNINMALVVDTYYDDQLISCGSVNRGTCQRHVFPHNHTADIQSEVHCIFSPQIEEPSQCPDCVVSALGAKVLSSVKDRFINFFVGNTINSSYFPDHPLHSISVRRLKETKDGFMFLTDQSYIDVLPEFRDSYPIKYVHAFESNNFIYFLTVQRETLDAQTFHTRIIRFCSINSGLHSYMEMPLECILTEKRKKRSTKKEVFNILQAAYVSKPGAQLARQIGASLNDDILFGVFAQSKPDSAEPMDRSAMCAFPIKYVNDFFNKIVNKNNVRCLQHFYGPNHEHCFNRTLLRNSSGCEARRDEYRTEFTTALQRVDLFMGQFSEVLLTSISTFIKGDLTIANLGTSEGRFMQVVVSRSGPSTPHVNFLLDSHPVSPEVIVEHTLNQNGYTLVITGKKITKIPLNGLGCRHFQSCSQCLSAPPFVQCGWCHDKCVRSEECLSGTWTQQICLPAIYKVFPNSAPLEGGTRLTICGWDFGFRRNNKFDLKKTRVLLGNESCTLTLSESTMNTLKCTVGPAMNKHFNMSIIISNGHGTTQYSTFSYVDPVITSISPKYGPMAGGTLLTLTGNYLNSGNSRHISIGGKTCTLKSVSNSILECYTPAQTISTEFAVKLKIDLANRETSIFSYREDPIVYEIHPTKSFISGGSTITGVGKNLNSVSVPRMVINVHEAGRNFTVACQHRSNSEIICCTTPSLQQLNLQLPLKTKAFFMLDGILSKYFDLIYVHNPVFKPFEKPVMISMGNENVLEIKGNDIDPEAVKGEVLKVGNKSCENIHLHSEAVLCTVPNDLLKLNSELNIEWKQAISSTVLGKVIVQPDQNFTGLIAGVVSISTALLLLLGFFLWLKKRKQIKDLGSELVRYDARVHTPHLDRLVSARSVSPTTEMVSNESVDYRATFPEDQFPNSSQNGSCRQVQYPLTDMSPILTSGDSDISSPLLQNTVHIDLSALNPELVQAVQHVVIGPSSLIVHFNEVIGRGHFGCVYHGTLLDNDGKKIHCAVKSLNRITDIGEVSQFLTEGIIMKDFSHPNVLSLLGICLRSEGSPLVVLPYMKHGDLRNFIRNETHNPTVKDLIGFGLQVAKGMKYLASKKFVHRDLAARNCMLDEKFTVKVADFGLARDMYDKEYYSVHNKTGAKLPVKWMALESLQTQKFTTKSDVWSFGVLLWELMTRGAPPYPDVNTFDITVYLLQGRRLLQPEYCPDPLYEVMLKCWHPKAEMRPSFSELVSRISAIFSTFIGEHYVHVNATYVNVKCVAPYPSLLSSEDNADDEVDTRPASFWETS

[20] = molecular target: T1, Macrophage-stimulating protein receptor; experiment: Inhibition of RON (unknown origin)
[21] = Clearance in Sprague-Dawley rat at 1 mg/kg, iv measured after 24 hrs by LC/MS/MS analysis; format: ADME, organism-based; conditions: Sprague-Dawley, in vivo
[22] = Half life in Sprague-Dawley rat at 1 mg/kg, iv measured after 24 hrs by LC/MS/MS analysis; format: ADME, organism-based; conditions: in vivo
[23] = Tmax in Sprague-Dawley rat at 5 mg/kg, po measured after 24 hrs by LC/MS/MS analysis; format: ADME, organism-based; conditions: in vivo
[24] = Metabolic stability in human liver microsomes assessed as parent compound remaining after 30 mins in presence of NADPH by LC/MS/MS analysis; format: ADME, Microsome; conditions: read-out: Stability
[25] = Volume of distribution at steady state in Sprague-Dawley rat at 1 mg/kg, iv measured after 24 hrs by LC/MS/MS analysis; format: ADME, organism-based; conditions: in vivo, read-out: Vdss

Structure (SMILES)	GI50 [1] [nM]	IC50 [2] [nM]	GI50 [3] [nM]	GI50 [4] [nM]	also measured
CCOc1ccn(-c2ccc(F)cc2)c(=O)c1C(=O)Nc1ccc(Oc2ccnc3cc(-c4ccc(CN5CC(F)C5)cn4)sc23)c(F)c1	200	0.63	1250	16	–
CCOc1ccn(-c2ccccc2)c(=O)c1C(=O)Nc1ccc(Oc2ccnc3cc(-c4ccc(CN5CCOCC5)cn4)sc23)c(F)c1	260	–	–	3	Activity [5]: Active; Activity [6]: Active
C[C@@H](Oc1cc(-c2cnn(C3CCNCC3)c2)cnc1N)c1c(Cl)ccc(F)c1Cl [CRIZOTINIB]	–	–	4000	–	GI50 [7]: > 10000 nM; GI50 [8]: 2560 nM; GI50 [9]: 1460 nM; inhibition in vivo at 10 mg/kg [10]: 27.5%; GI50 [11]: 2380 nM; GI50 [12]: 6350 nM; GI50 [13]: 5120 nM
CCOc1ccn(-c2ccc(F)cc2)c(=O)c1C(=O)Nc1ccc(Oc2ccnc3cc(-c4cn(C)cn4)sc23)c(F)c1	810	0.41	570	27	AUC(0-inf) [14]: 6670 ng·h/mL; Cmax [15]: 810 ng/mL; bioavailability [16]: 30.5%; AUC(0-inf) [17]: 4370 ng·h/mL; half-life [18]: 3.79 h; IC50 [19]: 4 nM; IC50 [20]: 9 nM; clearance [21]: 3.83 mL/min/kg; half-life [22]: 3.03 h; Tmax [23]: 2.67 h; remaining at 0.5 h [24]: 49%; Vd [25]: 0.64 L/kg
CCOc1ccn(-c2ccc(F)cc2)c(=O)c1C(=O)Nc1ccc(Oc2ccnc3cc(-c4ccc(CN5CC(OC)C5)cn4)sc23)c(F)c1	1030	0.16	1640	27	–
CCOc1ccn(-c2cccc(F)c2)c(=O)c1C(=O)Nc1ccc(Oc2ccnc3cc(-c4ccc(CN5CCOCC5)cn4)sc23)c(F)c1	640	0.74	395	42	Activity [5]: Active; Activity [6]: Active
CCOc1ccn(-c2ccc(F)cc2)c(=O)c1C(=O)Nc1ccc(Oc2ccnc3cc(-c4ccc(CN5CC(F)(F)C5)cn4)sc23)c(F)c1	780	0.48	970	24	–
CCOc1ccn(-c2ccc(F)cc2)c(=O)c1C(=O)Nc1ccc(Oc2ccnc3cc(-c4ccc(CN5CCC(OC)C5)cn4)sc23)c(F)c1 (configuration not stated)	360	0.69	7710	23	–
CCCOc1ccn(-c2ccc(F)cc2)c(=O)c1C(=O)Nc1ccc(Oc2ccnc3cc(-c4ccc(CN5CCOCC5)cn4)sc23)c(F)c1	590	0.49	500	10	Activity [5]: Active; Activity [6]: Active
CC(C)COc1ccn(-c2ccc(F)cc2)c(=O)c1C(=O)Nc1ccc(Oc2ccnc3cc(-c4ccc(CN5CCOCC5)cn4)sc23)c(F)c1	380	0.62	160	3	Activity [5]: Active; Activity [6]: Active
CCOc1ccn(-c2ccc(F)cc2)c(=O)c1C(=O)Nc1ccc(Oc2ccnc3cc(-c4ccc(CN5CCC(F)(F)C5)cn4)sc23)c(F)c1	620	0.86	4880	9	–
CN1CCC(Oc2ccn(-c3ccc(F)cc3)c(=O)c2C(=O)Nc2ccc(Oc3ccnc4cc(-c5ccc(CN6CCOCC6)cn5)sc34)c(F)c2)C1 (configuration not stated)	3660	5.47	5610	55	–
CCOc1ccn(-c2ccc(F)cc2)c(=O)c1C(=O)Nc1ccc(Oc2ccnc3cc(-c4ccc(CNCCOC)cn4)sc23)c(F)c1	440	–	590	3400	–
CCOc1ccn(-c2ccc(F)cc2)c(=O)c1C(=O)Nc1ccc(Oc2ccnc3cc(-c4ccccn4)sc23)c(F)c1	1550	0.48	3140	22	–
Cc1ccc(C(=O)Nc2ccc(Oc3cc4cnn(C)c4cc3-c3cn[nH]c3)c(F)c2)c(=O)n1-c1ccc(F)cc1 [MERESTINIB]	–	–	–	–	IC50 [20]: 12 nM
COc1ccc2c(Oc3ccc(NC(=O)c4c(C)n(CC(C)(C)O)n(-c5ccccc5)c4=O)cc3F)ccnc2c1	–	–	–	–	IC50 [19]: 9 nM

More lines, main results first:

GI50 [1] [nM]	IC50 [2] [nM]	GI50 [3] [nM]	Structure (SMILES)	GI50 [4] [nM]	also measured
1920	2.15	970	CN(C)CCOc1ccn(-c2ccc(F)cc2)c(=O)c1C(=O)Nc1ccc(Oc2ccnc3cc(-c4ccc(CN5CCOCC5)cn4)sc23)c(F)c1	35	–
1090	–	660	CCOc1ccn(-c2ccc(F)cc2)c(=O)c1C(=O)Nc1ccc(Oc2ccnc3cc(-c4ccc(CN5CCOCC5)cn4)sc23)c(Cl)c1	15	–
830	2.83	650	CCOc1ccn(-c2ccc(F)cc2)c(=O)c1C(=O)Nc1ccc(Oc2ccnc3cc(-c4ccc(CCN5CCOCC5)cn4)sc23)c(F)c1	26	–
7370	6	660	CCOc1ccn(-c2ccc(F)cc2)c(=O)c1C(=O)Nc1ccc(Oc2ccnc3cc(-c4ccc(CN5CCC(F)(F)CC5)cn4)sc23)c(F)c1	27	–
540	0.82	650	CCOc1ccn(-c2ccc(F)cc2)c(=O)c1C(=O)Nc1ccc(Oc2ccnc3cc(-c4ccc(CN5CCC(F)C5)cn4)sc23)c(F)c1 (configuration not stated)	16	–
2370	0.72	860	O=C(Nc1ccc(Oc2ccnc3cc(-c4ccc(CN5CCOCC5)cn4)sc23)c(F)c1)c1c(OCCC2CC2)ccn(-c2ccc(F)cc2)c1=O	11	–
–	75.6	–	CN1CCC(COc2ccn(-c3ccc(F)cc3)c(=O)c2C(=O)Nc2ccc(Oc3ccnc4cc(-c5ccc(CN6CCOCC6)cn5)sc34)c(F)c2)C1 (configuration not stated)	–	–
700	0.73	1770	CCOc1ccn(-c2ccc(F)cc2)c(=O)c1C(=O)Nc1ccc(Oc2ccnc3cc(-c4ccc(CN5CCC(OC)CC5)cn4)sc23)c(F)c1	19	–
580	–	600	CCOc1ccn(-c2ccc(Cl)cc2)c(=O)c1C(=O)Nc1ccc(Oc2ccnc3cc(-c4ccc(CN5CCOCC5)cn4)sc23)c(F)c1	25	–
2840	–	1560	CCOc1ccn(-c2ccc(F)cc2)c(=O)c1C(=O)Nc1ccc(Oc2ccnc3cc(-c4ccc(CN5CCOCC5)cn4)sc23)cc1Cl	6	–
–	17.3	–	CCOc1ccn(-c2ccc(C(F)(F)F)cc2)c(=O)c1C(=O)Nc1ccc(Oc2ccnc3cc(-c4ccc(CN5CCOCC5)cn4)sc23)c(F)c1	–	–
1350	2.25	642	CCOc1ccn(-c2ccc(F)cc2)c(=O)c1C(=O)Nc1cc(F)c(Oc2ccnc3cc(-c4ccc(CN5CCOCC5)cn4)sc23)c(F)c1	40	–
1560	2.39	2770	CCOc1ccn(-c2ccc(F)cc2)c(=O)c1C(=O)Nc1ccc(Oc2ccnc3cc(-c4ccc(OCCN5CCOCC5)cn4)sc23)c(F)c1	38	–
560	1.82	2440	CCOc1ccn(-c2ccc(F)cc2)c(=O)c1C(=O)Nc1ccc(Oc2ccnc3cc(-c4ccc(CN5CCC(F)CC5)cn4)sc23)c(F)c1	17	–
680	–	–	CCOc1ccn(-c2ccc(F)cc2)c(=O)c1C(=O)Nc1ccc(Oc2ccnc3cc(-c4ccc(CN5CCN(C)CC5)cn4)sc23)c(F)c1	9	–
1000	0.98	840	CCCCOc1ccn(-c2ccc(F)cc2)c(=O)c1C(=O)Nc1ccc(Oc2ccnc3cc(-c4ccc(CN5CCOCC5)cn4)sc23)c(F)c1	15	–

Reference: ChEMBL document CHEMBL5365510, “Discovery of Novel, Thienopyridine-Based Tyrosine Kinase Inhibitors Targeting Tumorigenic RON Splice Variants” (ACS Med Chem Lett, 2023)
